# Like-named read-outs stand apart in the source and are kept apart here.
# How the values were obtained:
# Type in all cases: cell-based
# [1] = test system: Cryptococcus neoformans (serotype A); assay: Example L: Cryptococcus neoformans (serotype A) growth inhibition; settings: Cryptococcus neoformans; for MIC: read-out: MIC, uM (concentration for maximum - 99% of inhibition)
# Experimental: Cryptococcus neoformans (serotype A) were plated in 96 well plates with 144 μl/well of 5×10e5 CFU/ml in YPD growth medium. Diluted compounds were then added to each well with concentration ranged from 0.05 to 10 μM as final concentration in duplicates. The plates were inoculated at 30° C. Two readings of OD at 600 nm were measured after 18 hr and […] treatments.
# C12-imidazol had relative weak activity against Cryptococcus serotype A at low concentration. Data plotted was based on 26 hour reading because 18 hour reading was too low.
# • 1. Pick a single colony of Cryptococcus from the Sabouraud Dextrose agar plate using the inoculum loop and inoculate into a 125 ml flask containing 25 ml of YPD growth medium • 2. Incubate at 30° C. with shaking at 220 rpm for 24 hours with loosen lid to allow air in and facilitates growth. • 3. Examine an aliquot of the culture under a microscope for yeast cell morphology and lack of bacterial contamination. • 4. Dilute the overnight culture with YPD medium at 1:100 dilution and count the number of cells as 8×10^6 cfu/ml. • 5. Make a final concentration of cells suspension at 5×10^5 cfu/ml in YPD medium after the stock culture had been stored at 4° C. for 3 days. • 6. Plate 144 μl/well of 5×10^5 cfu/ml cell suspension on 96-well plates. Part-II: Cryptococcus Growth Inhibition Testing with Compounds • 1. From 10 mM DMSO stock solutions, make serial dilutions of compounds to 0.0013, 0.0025, 0.0125, 0.025, 0.05, 0.125 and 0.25 mM solution • 2. Add 6 ul each of diluted compound solutions per well in duplicates. The final concentrations were 0, 0.05, 0.1, 0.5, 1.0, 2.0, 5.0 and 10 micromolar. • 3. Incubated all plates at 30° C. overnight with 175 rpm shaking. • 4. Read absorbance at OD600 after 18 and 26 hours for each plate. • 5. Calculated the % inhibition and IC50 of each compound against the untreated cell.
# Candida albicans strains = assay: Example N: MIC and MFC (CLSI) against Candida albicans; parameters: MIC at 50% inhibition / MIC at 100% inhibition: unit not given here; settings: for MIC / MFC: Candida albicans, three clinical strains; for MIC: read-out: MIC 100%, Range
# Experimental: (§1) The objective of this study was to determine the antifungal activity of eight experimental compounds against a representative panel of fungal isolates, including Candida albicans, C. glabrata, Cryptococcus neoformans, Trichophyton rubrum, Aspergillus fumigatus, and Rhizopus spp. Antifungal activity was measured by minimum inhibitory concentration (MIC) and minimum fungicidal concentration (MFC).
# (§2) Three recent clinical strains of each species, taken from the culture collection at the Center for Medical Mycology, Case Western University, were tested.
# (§3) Compounds in powder form were dissolved in DMSO. Serial dilutions of each compound were then prepared in RPMI-1640 in a range of […].
# (§4) MIC testing was performed according to the CLSI M27-A3 and M38-A2 standards for the susceptibility testing of yeasts and filamentous fungi, respectively (1, 2). Test isolates were subcultured from frozen slants onto potato dextrose agar plates (Trichophyton rubrum was subcultured onto oatmeal plates for conidia production) and checked for purity. Inocula were then prepared in RPMI-1640 (YNB for Cryptococcus) to a concentration of 0.5-2.5×10^3 colony-forming units (CFU)/ml or 0.4-5×10^4 conidia/ml for yeast and filamentous fungi, respectively.
# (§5) MFC determinations were performed according to the modifications previously described by Canton et al. and Ghannoum and Isham. (3, 4) Specifically, the total contents of each clear well from the MIC assay were subcultured onto potato dextrose agar. To avoid antifungal carryover, the aliquots were allowed to soak into the agar and then were streaked for isolation once dry, thus removing the cells from the drug source.
# [2] = test system: Trichophyton rubrum strains; assay: Example N: MIC and MFC (CLSI) against Trichophyton rubrum; settings: for MIC: read-out: MIC 100%, Range, incubated for 96 hrs, three clinical strains; for MFC: three clinical strains
# Experimental: as §1, §2, §3, §4, §5
# [3] = read-out: IC50, uM (concentration for 50% of inhibition), OD of 26 hour reading, 30° C., XLfit
# [4] = OD of 26 hour reading, 30° C., XLfit
# [5] = Macrophage, direct inhibition, values of the earlier study (Table 25), read-out: IC50 value (μM) for inhibition of fungal growth, No macrophages
SMILES,"IC50 [1, 3] [µM]","MIC [1, 4] [µM]",MIC (Candida albicans strains; 24 hr) [µg/mL],MIC (Candida albicans strains; 48 hr) [µg/mL],MIC [2] [µg/mL],MFC (Candida albicans strains; 48 hr) [µg/mL],MFC [2] [µg/mL],"IC50 [1, 5] [µM]","cidal activity (MFC within 4 dilutions of the MIC), in words (Candida albicans strains; 3 strains)",MIC at 50% inhibition (Candida albicans strains; 24 hrs),MIC at 100% inhibition (Candida albicans strains; 24 hrs),MIC at 50% inhibition (Candida albicans strains; 48 hrs)
"COc1ccc(OCCCCCCCCNc2ncnc3ccccc23)cc1 [AE, N-[8-(4-Methoxyphenoxy)octyl]quinazolin-4-amine]",0.54,14.7,0.5 to 4,4,4 to 16,8 to 64,4 to 16,–,–,–,–,–
"CCCCCCOc1cccc(CNc2ncnc3ccccc23)c1 [AK, N-[3-(Hexyloxy)benzyl]quinazolin-4-amine]",0.25,19.5,–,–,–,–,–,–,–,–,–,–
"CCCCOCCCCCCCCCCNc1ccnc2ccccc12 [AM, N-(10-Butoxydecyl)quinolin-4-amine]",1.57,10.5,2 to 4,2 to 4,0.5 to 4,4,1 to 4,1.57,–,–,–,–
"c1ccc(Oc2cccc(CNc3ncnc4ccccc34)c2)cc1 [BM, N-(3-Phenoxybenzyl)quinazolin-4-amine]",0.69,17.5,–,–,–,–,–,0.69,–,–,–,–
"CCCCCCOc1cccc(CNc2ccnc3ccccc23)c1 [Compound AC, N-[3-(Hexyloxy)benzyl]quinolin-4-amine]",–,12.6,0.12 to 1,0.5 to 2,0.5 to 4,2,0.5 to 4,1.15,cidal against 2 of the 3 C. albicans strains tested,<0.12-0.25,<0.12-1,<0.12-1

# Further lines, with some results ahead:
"IC50 [1, 3] [µM]","MIC [1, 4] [µM]",MIC (Candida albicans strains; 24 hr) [µg/mL],MIC (Candida albicans strains; 48 hr) [µg/mL],MIC [2] [µg/mL],SMILES,MFC (Candida albicans strains; 48 hr) [µg/mL],MFC [2] [µg/mL],"IC50 [1, 5] [µM]","cidal activity (MFC within 4 dilutions of the MIC), in words (Candida albicans strains; 3 strains)",MIC at 50% inhibition (Candida albicans strains; 24 hrs),MIC at 100% inhibition (Candida albicans strains; 24 hrs),MIC at 50% inhibition (Candida albicans strains; 48 hrs)
1.74,13.8,4 to 8,8,1 to 16,"CCCCCCOCCCCCCCCNc1ccnc2cc(Cl)ccc12 [AW, 7-Chloro-N-[8-(hexyloxy)octyl]quinolin-4-amine]",8 to 32,8 to 16,–,–,–,–,–
2.14,11.4,0.5 to 2,1 to 4,0.25 to 2,"CCCCCCCCCCNc1ccnc2ccccc12 [Compound AG, N-(Decyl)quinolin-4-amine]",2 to 4,0.5 to 2,–,–,–,–,–
0.39,12,0.12 to 4,1 to 4,0.25 to 4,"CCCCCCCCCCNc1ncnc2ccccc12 [Compound AH, N-(Decyl)quinazolin-4-amine]",4 to 32,0.25 to 16,0.39,–,–,–,–
3.01,10.5,2 to 4,2 to 4,1 to 4,"CCCCCCOCCCCCCCCCCNc1ccnc2ccccc12 [Compound AL, N-[10-(Hexyloxy)decyl]quinolin-4-amine]",4 to 8,2 to 4,–,–,–,–,–
0.91,17.3,0.5 to 4,2 to 4,0.25 to 8,"CCCCCCOCCCCCCCCNc1ccnc2c(Cl)cccc12 [Compound AX, 8-Chloro-N-[8-(hexyloxy)octyl]quinolin-4-amine]",4 to 32,2 to 8,–,–,–,–,–

# Source: patent US20250034139A1, “AMINE COMPOUNDS HAVING ANTI-INFLAMMATORY, ANTIFUNGAL, ANTIPARASITIC, AND ANTICANCER ACTIVITY” (PHARMA CINQ, LLC, priority 2013, published 2025)
